Consider one compound from PMC5452262 (2016).

In assay [1] the test system is TBP-regulated control #1 (lacks GC-rich stem) (DNA, hairpin) TTATATAAATTTTTTATATATTTTTTTTATT
As to the kind of experiment: fluorescence anisotropy. To be noted: 150 mM NaCl, 10 mM MgCl2; 50 mM sodium phosphate pH 7.0, 25 °C; equimolar doxorubicin and DNA, 100 nM.

In assay [2] the test system is TBP-regulated DNA-nanoswitch variant #1 (DNA, hairpin) CTATATAAACCTTTTATATATCTTGGGTAGG
As to the kind of experiment: fluorescence anisotropy titration. The settings on record: 150 mM NaCl, 10 mM MgCl2; 50 mM sodium phosphate pH 7.0, 25 °C; 100 nM doxorubicin titrated with DNA.

Assay [3] has as its system TBP-regulated DNA-nanoswitch variant #2 (DNA, hairpin) CTATATAAAGCCCTTTTATATATCTTGGGTAGGGC
As to the kind of experiment: fluorescence anisotropy titration. To be noted: 150 mM NaCl, 10 mM MgCl2; 50 mM sodium phosphate pH 7.0, 25 °C; 100 nM doxorubicin titrated with DNA.

Assay [4] concerns TBP-regulated DNA-nanoswitch variant #3 (DNA, hairpin) CTATATAAACCGCCCTTTTATATATCTTGGGTAGGGCGG
As to the kind of experiment: fluorescence anisotropy titration. To be noted: 150 mM NaCl, 10 mM MgCl2; 50 mM sodium phosphate pH 7.0, 25 °C; 100 nM doxorubicin titrated with DNA.

For assay [5], the system named is antibody-regulated DNA-nanoswitch variant #1 (DNA, hairpin) TAGTTTTTTTTTTTTTTTTCTA
Kind of assay: fluorescence anisotropy titration. To be noted: 150 mM NaCl, 10 mM MgCl2; 50 mM sodium phosphate pH 7.0, 25 °C; 100 nM doxorubicin titrated with DNA.

The test system of assay [6] is antibody-regulated DNA-nanoswitch variant #2 (DNA, hairpin) TCCGTTTTTTTTTTTTTTTTCGGA
As to the kind of experiment: fluorescence anisotropy titration. To be noted: 150 mM NaCl, 10 mM MgCl2; 50 mM sodium phosphate pH 7.0, 25 °C; 100 nM doxorubicin titrated with DNA.

The subject of assay [7] is antibody-regulated DNA-nanoswitch variant #3 (DNA, hairpin) TCGCCGTTTTTTTTTTTTTTTTCGGCGA
As to the kind of experiment: fluorescence anisotropy titration. The settings on record: 150 mM NaCl, 10 mM MgCl2; 50 mM sodium phosphate pH 7.0, 25 °C; 100 nM doxorubicin titrated with DNA.

Each structure is given as a SMILES string.

On to `COc1cccc2c1C(=O)c1c(O)c3c(c(O)c1C2=O)C[C@@](O)(C(=O)CO)C[C@@H]3O[C@H]1C[C@H](N)[C@H](O)[C@H](C)O1`, for which the binding result is “weak” in assay [1]; “yes” in assay [2]; “yes” in assay [3]; “yes” in assay [4]; “weak” in assay [5]; “yes” in assay [6]. In assay [7], the binding result is given as “yes”.
